Experimental data from patent publication US4096252A, “4-Trifluoromethylbenzoic acid derivatives as thromboembolic agents” (priority 1976, dated 1978).
Like-named read-outs stand apart in the source and are kept apart here.

Key:
[1] = test system: human platelet aggregation; assay: In vitro inhibition of human platelet aggregation (Born and Cross method); assay type: cell-based; settings: read-out: Platelet Aggregation Inhibition (PAI); for inhibition at 8300 µM: plasma concentration 8.30×10^-3 molar
Procedure: Platelet aggregation was measured according to the method of Born and Cross (8) by using rat and human plasma. The results are summarized below in Tables I and II.
Key : PC = Plasma Concentration: PAI = Platelet Aggregation
*The percent of inhibition was calculated using the method described by
McKenzie (Proc. Soc. Exp. Biol. Med. 137: 662, 1971).

rat platelet aggregation = assay: In vitro inhibition of rat platelet aggregation (Born and Cross method); assay type: cell-based; settings: Rattus norvegicus, Platelet, rat plasma, read-out: Platelet Aggregation Inhibition (PAI); for inhibition at 8300 µM: plasma concentration 8.30×10^-3 molar
Procedure: Platelet aggregation was measured according to the method of Born and Cross (8) by using rat and human plasma.

gastric mucosa = settings: rat, in vivo
Procedure: For this reason this compound has not been included in further in vivo experimentation. However, the other two compounds were well tolerated and satisfactory low acute toxicity values were found (approximately 500 mg/kg for both substances).

Compound: O=C(O)c1ccc(C(F)(F)F)cc1O [2-hydroxy-4-trifluoromethylbenzoic acid]
- inhibition at 6250 µM ([1]; ADP 1.6×10^-6 M, plasma concentration 6.25×10^-3 molar): 70%
- inhibition at 8300 µM ([1]; ADP 1.6×10^-6 M): 100%
- inhibition at 8300 µM ([1]; Collagen 33.3 mcg/ml): 58%
- inhibition at 17000 µM ([1]; Collagen 33.3 mcg/ml, plasma concentration 17.0×10^-3 molar): 75%
- inhibition at 3300 µM ([1]; Epinephrine 1.4×10^-6 M, plasma concentration 3.30×10^-3 molar): 32%
- inhibition at 8100 µM ([1]; Epinephrine 1.4×10^-6 M, plasma concentration 8.10×10^-3 molar): 91%
- inhibition at 6250 µM (rat platelet aggregation; ADP 4.1×10^-6 M, plasma concentration 6.25×10^-3 molar): 60.2%
- inhibition at 8300 µM (rat platelet aggregation; ADP 4.1×10^-6 M): 89.2%
- inhibition at 4150 µM (rat platelet aggregation; Collagen 33.3 μg/ml, plasma concentration 4.15×10^-3 molar): 27.2%
- inhibition at 8300 µM (rat platelet aggregation; Collagen 33.3 μg/ml): 48.3%
- gastro-intestinal disturbances (in words) (gastric mucosa): high incidence of serious gastro-intestinal disturbances, including bleeding of the gastric mucosa and peptic ulcers
